# Measurements: patent US20210038668A1, “TRADITIONAL CHINESE MEDICINE COMPOSITION FOR PREVENTING AND/OR TREATING ISCHEMIC REPERFUSION INJURY” (TASLY PHARMACEUTICAL GROUP CO., LTD., priority 2018, published 2021)
# How the values were obtained:
# Assay type in all cases: in vivo, C57BL/6 mice
# Bax = test: Western blotting of Bax in brain tissue; settings: brain tissue 24 h after administration, sham = 1.00; tPA 10 mg/kg alone or + T541 20 mg/kg or ingredients at Table 7 doses
# Source text: To compare the therapeutical effect on reperfusion injury caused by tPA thrombolysis between the traditional Chinese medicinal composition of the present invention and each ingredient (total saponins of Astragalus, the experiment was divided into the following group (tPA is combined with T541, individual ingredient thereof and compatibility of any two ingredients) specifically as follows: tPA+total saponins of Astragalus (tPA+HQ), tPA+ salvianolic acids (tPA+DS), tPA+Panax notoginseng saponins (tPA+SQ), tPA+ total saponins of Astragalus+salvianolic acids (tPA+HQ+DS), tPA+ total saponins of Astragalus+Panax notoginseng saponins (tPA+HQ+SQ), tPA+ salvianolic acids+Panax notoginseng saponins (tPA+DS+SQ) and tPA+T541. Normal saline served as an isovolumetric control. The usage number in each group is 6.
# After reperfused for 24 hours, mice were perfused by normal saline; Western blotting analysis was conducted to the penumbra field of infarcted right cerebral cortex. […] Excessive supernatant was taken out and quantified by a BCA protein quantification liquor (ThermoScientific, US) to measure absorbance value at 560 nm of ELIASA and to calculate the protein concentration according to a standard curve. […] The density of electrophoretic strips was analyzed by an image analysis software Quantityone. […]
# [1] = test system: mice with carotid artery thrombus; test: Survival rate within 24 hours after administration; settings: tPA 10 mg/kg alone
# Experimental: Mice were anesthetized via intraperitoneal injection by pentobarbital sodium (2%, 45 mg/kg), and neck kin was sterilized. A median incision was cut on the neck, exposed and isolated to obtain arteria carotis communis; a waterproof cushion was used to isolate arteria carotis communis with the length of about 2.5-3 mm from surrounding tissues. The isolated arteria carotis communis was wrapped by a filter paper soaked by 10% FeCl3 for about 1 mm (width), and the filter paper was removed 3 minutes later, the outside of blood vessel was washed by 0.9% normal saline. The waterproof cushion was removed. The neck incision was sutured. The start of Fe3+ stimulation was defined as the beginning of ischemia, and those mice meeting the following conditions were selected into the group: the blood vessel was blocked at the maximum diameter of the neck thrombus 10 minutes after ischemia; the blood flow of the carotid artery distal end was less than 20% of the base value 15 minutes after ischemia; and the thrombus was stable 4.5 hours after ischemia (before reperfusion); the carotid artery vessel at 60% and more of the diameter was blocked by the maximum diameter of the thrombus.
# Mice were treated by medicaments or normal saline according to random grouping results 4.5 hours after ischemia. Mice femoral vein was intubated, and left femoral vein was injected tPA (tissue plasminogen activator) or normal saline; right femoral vein was injected the traditional Chinese medicinal composition of the present invention or normal saline; 10% of the total dose was injected via an injection pump, and the rest 90% were continuously injected intravenously for 1 hour with the rate of 0.1 ml/h. Three proportion groups were selected to the traditional Chinese medicinal composition of the present invention respectively below:
# The survival rate, neurological scoring, change of carotid artery ischemia size and change of cerebral blood flow perfusion of mice after reperfused for 24 hours were recorded; and the optimal drug concentration was selected for further analysis.
# [2] = test system: mice with carotid artery thrombus; test: 18-Score Modified Neurological Severity Score, mice
# Experimental: Neurological scoring was conducted to each group of […] after reperfused for 3 hours and 24 hours based upon scoring standards (18 scores), as shown in table 2:
# Another scoring method is introduced hereafter. Modified neurological severity scores, mNSS, the score is within the range of 0-18. The scoring method is referring to 1.4 of Example 1.
# 18-Score Modified Neurological Severity Score (normal mice=0; the higher the score is, the more severe the nerve injury is), and a 15-score standard (normal mice=15, dead mice=0) are applied.
# Laminin = test: Western blotting of Laminin, basement membrane; settings: brain tissue 24 hours after administration, sham = 1.00; tPA 10 mg/kg alone; T541 20 mg/kg + tPA 10 mg/kg
# Experimental: After reperfused for 24 hours, mice were perfused by normal saline; Western blotting analysis was conducted to the penumbra field of infarcted right cerebral cortex. After perfused, mice brain tissue was taken out; cerebellum and prefrontal lobe were cut off; the brain tissue of right brain close to 1 cm of the central joint of left and right hemispheres along the sagittal view; infarcted penumbra field of the rest tissues was cut off along an 45° angle; the cerebral cortex of the penumbra field was peeled off and preserved at low temperature. Right cerebral cortex was taken and added 1×RIPA lysate and a Cocktail protease inhibitor (1:100, Cell Signaling Technology, US) for full pyrolysis and ultrasonic treatment, and then 17000 g were centrifuged for 30 minutes. Supernatant was taken and added 5×loading buffer by volume, boiled for 20 minutes in boiling water, and then preserved at −80° C. Excessive supernatant was taken out and quantified by a BCA protein quantification liquor (ThermoScientific, US) to measure absorbance value at 560 nm of ELIASA and to calculate the protein concentration according to a standard curve. […] The density of electrophoretic strips was analyzed by an image analysis software Quantityone. […]
# [3] = T141 12 mg/kg, T582 15 mg/kg each + tPA 10 mg/kg
# [4] = T541 20 mg/kg, T141 12 mg/kg, T582 15 mg/kg each + tPA 10 mg/kg
substance,measurement,setting,value
tPA: tissue-type plasminogen activator (tPA) for thrombolysis,Bax,Bax,5.52 ± 0.78
same,Bax/Bcl-2,Bax,3.82 ± 0.57
same,"survival rate (%), 6 h after administration",[1]; [3],70.00%
same,"survival rate (%), 12 h after administration",[1]; [3],60.00%
same,"survival rate (%), 18 h after administration",[1]; T541 20 mg/kg + tPA 10 mg/kg,50.00%
same,"survival rate (%), 0 h after administration",[1]; [4],100.00%
same,"survival rate (%), 24 h after administration",[1]; [4],50%
same,18-Score Modified Neurological Severity Score,"[2]; 24 hours after administration, normal = 0, tPA 10 mg/kg alone, T541 20 mg/kg, T141 12 mg/kg, T582 15 mg/kg each + tPA 10 mg/kg",7.45 ± 0.73
same,neurological scoring 24 hours after administration (in words),"[2]; tPA alone, low/medium/high-dose T541 + tPA",may not improve the neurological scoring
same,Laminin content,Laminin,0.47 ± 0.06
